US20060111305A1, “Metabolites of certain [1,4]diazepino[6,7,1-ij]quinoline derivatives and methods of preparation and use thereof” (Wyeth, priority 2004, published 2006)
Read-outs that look alike come from different tables or passages of the source.

What was measured:
[1] = Dog plasma metabolite profiles after single 15 mg/kg oral capsule of [14C]DCDQ; format: in vivo, beagle dogs; conditions: for concentration at 2 h / concentration at 4 h / concentration at 8 h / concentration at 24 h / concentration at 48 h: male, beagle, dog, plasma, oral, 15 mg/kg, read-out: Estimated plasma concentration in dogs
Procedure: (§1) For plasma profiles, a TopCount NXT radiometric microplate reader (Perkin Elmer) was used to analyze the radioactivity in collected HPLC fractions. The limit of detection by TopCount was about 1 ng equivalent/mL. A Flo-One β Model A525 radioactivity detector (Perkin Elmer) with a 250 μL LQTR flow cell was used to acquire data for urine and fecal samples. The flow rate of Ultima Flow M scintillation fluid was 1 mL/min, providing a mixing ratio of scintillation cocktail to mobile phase of 5:1. The limits of detection by Flo-One detector were about 200 ng equivalents/mL for urine and 12 ng equivalents/g for feces.
Plasma samples were analyzed for metabolite profiles by HPLC. Aliquots of plasma were mixed with two volumes of cold methanol containing 0.1% trifluoroacetic acid (TFA), placed on ice for about 2 minutes and then centrifuged. The supernatant fluid was transferred to a clean tube and evaporated at 22° C. under nitrogen in a Zymark TurboVap LV (Caliper Life Sciences, Hopkinton, Mass.) to a volume of about 0.3 mL. The residue was centrifuged, the supernatant volume measured and extraction efficiency determined by analysis of duplicate 20 μL aliquots for radioactivity. A 200 μL aliquot of the supernatant was injected onto the HPLC column and the effluent was collected at 20 second intervals into 96-well Lumaplates (Perkin Elmer). The plates were dried overnight in an oven at 40° C. and analyzed by a TopCount. Plasma extracts were also analyzed by LC/MS.
(§2) A Waters model 2690 HPLC system (Waters Corp., Milford, Mass.) with a built-in autosampler was used for analysis. Separations were accomplished on a Phenomenex Luna C18(2) column (150×2.0 mm, 5 μm) (Phenomenex, Torrance, Calif.). The sample chamber of the autosampler was maintained at 4° C., while the column was at ambient temperature of about 20° C. A variable wavelength UV detector set to monitor 250 nm and a Flo-One β Model A525 radioactivity detector were used for data acquisition. The HPLC mobile phase consisted of 10 mM ammonium acetate, pH 4.5 (A) and acetonitrile (B), and was delivered at 0.2 mL/min. Chromatographic condition A was used for dose analysis, while condition B was used for analysis of urine and plasma, brain and fecal extracts.

[2] = Incubation of [14C]DCDQ with rat liver microsomes; format: in vitro ADME, Sprague Dawley rats; conditions: NADPH regenerating system, 12 μM DCDQ, 20 min
Procedure: [^14C]DCDQ was mixed with non-radiolabeled DCDQ (1:3 or 1:5) in the incubations. Microsomal incubations consisted of [^14C]DCDQ, magnesium chloride (10 mM) and liver microsomes incubated in 0.5 mL of 0.1 M potassium phosphate buffer, pH 7.4. [^14C]DCDQ (20 μL) in water was added to the incubation tubes containing buffer, magnesium chloride solution and microsomes. After mixing, the tubes were pre-incubated for 2 minutes in a shaking water bath at 37° C. The reactions were initiated by the addition of UDPGA or the NADPH regenerating system. UDPGA was added to incubations as a 50 μL aliquot of a 20 mM solution in water, to give a final concentration of 2 mM. An NADPH regenerating system (30 μL) was added to incubations to evaluate CYP450-mediated metabolism. The NADPH regenerating system consisted of glucose-6-phosphate (2 mg/mL), glucose-6-phosphate dehydrogenase (0.8 units/mL) and NADP^+ (2 mg/mL). Control incubations were conducted under the same conditions, but without the NADPH generating system, UDPGA or microsomes. All incubations were performed in duplicate. Incubations were stopped by the addition of 0.5 mL ice-cold methanol. Samples were vortex-mixed. Denatured proteins were separated by centrifugation at 4300 rpm and 4° C. for 10 minutes (Model T21 super centrifuge, Sorvall). The protein pellets were extracted with 0.5 mL of methanol. The supernatant was combined for each sample, mixed and evaporated to a volume of about 0.3 mL under a nitrogen stream in a Zymark TurboVap LV evaporator (Caliper Life Science, Hopkinton, Mass.). The concentrated sample was centrifuged and aliquots were radioassayed and analyzed by HPLC. This method recovered an average of 92.1% of the radioactivity from the reaction mixture.
To evaluate species differences in cytochrome P450- and UGT-mediated metabolism, [^14C]DCDQ was incubated for 20 minutes with 0.5 mg/mL liver microsomal proteins from mice, rats, dogs or humans in the presence of the NADPH regenerating system or UDPGA. The assay conditions were the same as described above, and DCDQ concentrations were 12 μM and 56 μM for cytochrome P450- and UGT-mediated metabolism, respectively.
A Waters model 2690 HPLC system (Waters Corp., Milford, Mass.) with a built-in autosampler was used for analysis. Separations were accomplished on a Phenomenex Luna C18(2) column (2×150 mm, 5 μm) (Phenomenex, Torrance, Calif.) coupled with a filter (4×2 mm) cartridge. A variable wavelength UV detector set to monitor 250 nm and Flo-One β Model A525 radioactivity flow detector (Perkin Elmer) with a 250 μL LQTR flow cell were used for data acquisition. The flow rate of Ultima Flow M scintillation fluid was 1 mL/min, providing a mixing ratio of scintillation cocktail to mobile phase of 5:1. […]

[3] = Dog urinary excretion and metabolite profiles after oral capsule of [14C]DCDQ; format: in vivo, beagle dogs
Procedure: Blood samples were collected from the jugular vein at 2, 4, 8, 24 and 48 hour after dose administration into tubes containing potassium EDTA as the anticoagulant and then placed on ice. Aliquots of 50 μL were removed for combustion and determination of radioactivity content. Plasma was immediately obtained from the remaining blood by centrifugation at 4° C. Urine samples were collected into tubes on dry ice at intervals of 0-8, 8-24 and 24-48 hour post-dose. Fecal samples were collected at intervals of 0-8, 8-24 and 24-48 hour post-dose at room temperature, and were homogenized. The biological specimens were stored at approximately −70° C. until analysis.
as §1
Urine was analyzed for radioactivity concentration and analyzed by HPLC with radioactivity flow detection for metabolite profiles by direct injection to the HPLC column. LC/MS analyses for metabolite identification were also carried out with urine samples.
as §2

[4] = 0-8 hr, dog no. not printed (dog 1 by footnote a)

Chromatographic distribution of radioactivity in dog plasma ([1]; 2 hr, dog 1) [%]	Chromatographic distribution of radioactivity in dog plasma ([1]; 2 hr, dog 2) [%]	Chromatographic distribution of radioactivity in dog plasma ([1]; 4 hr, dog 1) [%]	Chromatographic distribution of radioactivity in dog plasma ([1]; 4 hr, dog 2) [%]	Chromatographic distribution of radioactivity in dog plasma ([1]; 8 hr, dog 1) [%]	Chromatographic distribution of radioactivity in dog plasma ([1]; 24 hr, dog 2) [%]	Chromatographic distribution of radioactivity in dog plasma ([1]; 24 hr, dog 3) [%]	Chromatographic distribution of radioactivity in dog plasma ([1]; 48 hr, dog 2) [%]	Estimated plasma concentration in dogs ([1]; 48 hr, dog 3)	concentration at 2 h ([1]; 2 hr, dog 1) [ng/mL]	concentration at 2 h ([1]; 2 hr, dog 2) [ng/mL]	concentration at 4 h ([1]; 4 hr, dog 1) [ng/mL]	concentration at 4 h ([1]; 4 hr, dog 2) [ng/mL]	concentration at 8 h ([1]; 8 hr, dog 1) [ng/mL]	concentration at 24 h ([1]; 24 hr, dog 2) [ng/mL]	concentration at 24 h ([1]; 24 hr, dog 3) [ng/mL]	concentration at 48 h ([1]; 48 hr, dog 2) [ng/mL]	metabolite detected in microsomal incubation [2]	Chromatographic distribution of radioactivity in dog urine ([3]; 24-48 hr, dog 1) [%]	Chromatographic distribution of radioactivity in dog urine ([3]; 24-48 hr, dog 2) [%]	Structure (SMILES)	also measured
8.4	2.6	8.0	4.9	8.0	2.1	6.4	6.7	BQL	30.1	32.9	40	80.9	43.3	23	125	44.7	not detected	4.4	7.6	OC1CN2C[C@@H]3CCC[C@@H]3c3cccc(c32)CN1 (stereo partly drawn) [Metabolite M1, hydroxy DCDQ]	Chromatographic distribution of radioactivity in dog plasma ([1]; 8 hr, dog 2): 4.7%; Chromatographic distribution of radioactivity in dog plasma ([1]; 8 hr, dog 3): 9.7%; Chromatographic distribution of radioactivity in dog plasma ([1]; 24 hr, dog 1): 6.8%; Chromatographic distribution of radioactivity in dog plasma ([1]; 48 hr, dog 1): 12%; concentration at 8 h ([1]; 8 hr, dog 2): 61.9 ng/mL; concentration at 8 h ([1]; 8 hr, dog 3): 24.8 ng/mL; concentration at 24 h ([1]; 24 hr, dog 1): 104 ng/mL; concentration at 48 h ([1]; 48 hr, dog 1): 58 ng/mL; Chromatographic distribution of radioactivity in dog urine ([3]; 8-24 hr, Mean): 6.6%; Chromatographic distribution of radioactivity in dog urine ([3]; 8-24 hr, dog 1): 8.3%; Chromatographic distribution of radioactivity in dog urine ([3]; 8-24 hr, dog 2): 4.7%; Chromatographic distribution of radioactivity in dog urine ([3]; 8-24 hr, dog 3): 6.7%; Chromatographic distribution of radioactivity in dog urine ([3]; 24-48 hr, Mean): 5.7%; Chromatographic distribution of radioactivity in dog urine ([3]; 24-48 hr, dog 3): 7.6%; Chromatographic distribution of radioactivity in dog urine ([3]; 24-48 hr, dog 4): 3.2%
12	2.9	6.6	5.3	4.0	–	–	2.8	BQL	43.1	36.4	33.1	86.6	21.7	–	–	18.9	not mouse or rat	8.5	4.0	[O-][N+]12CCN=Cc3cccc(c31)[C@H]1CCC[C@H]1C2 (stereo partly drawn) [Metabolite M5, DCDQ imine N-oxide]	Estimated plasma concentration in dogs ([1]; 8 hr, dog 2): BQL; Estimated plasma concentration in dogs ([1]; 8 hr, dog 3): BQL; Estimated plasma concentration in dogs ([1]; 24 hr, dog 1): BQL; Estimated plasma concentration in dogs ([1]; 24 hr, dog 2): BQL; Estimated plasma concentration in dogs ([1]; 24 hr, dog 3): BQL; Estimated plasma concentration in dogs ([1]; 48 hr, dog 1): BQL; Chromatographic distribution of radioactivity in dog urine [3, 4]: 5.9%
–	8.0	6.6	12	–	5.0	7.0	–	BQL	–	99.5	33.1	192	–	55.3	135	–	observed	25	18	OC1[C@@H]2CCC[C@@H]2c2cccc3c2N1CCNC3 (stereo partly drawn) [Metabolite M2, hydroxy DCDQ]	Estimated plasma concentration in dogs ([1]; 2 hr, dog 1): BQL^b; Estimated plasma concentration in dogs ([1]; 8 hr, dog 1): BQL; Estimated plasma concentration in dogs ([1]; 8 hr, dog 2): BQL; Estimated plasma concentration in dogs ([1]; 8 hr, dog 3): BQL; Estimated plasma concentration in dogs ([1]; 24 hr, dog 1): BQL; Estimated plasma concentration in dogs ([1]; 48 hr, dog 1): BQL; Estimated plasma concentration in dogs ([1]; 48 hr, dog 2): BQL; Chromatographic distribution of radioactivity in dog urine [3, 4]: 10%; Chromatographic distribution of radioactivity in dog urine ([3]; 8-24 hr, Mean): 24%; Chromatographic distribution of radioactivity in dog urine ([3]; 8-24 hr, dog 1): 21%; Chromatographic distribution of radioactivity in dog urine ([3]; 8-24 hr, dog 2): 26%; Chromatographic distribution of radioactivity in dog urine ([3]; 8-24 hr, dog 3): 26%; Chromatographic distribution of radioactivity in dog urine ([3]; 24-48 hr, Mean): 22%; Chromatographic distribution of radioactivity in dog urine ([3]; 24-48 hr, dog 3): 22%; Chromatographic distribution of radioactivity in dog urine ([3]; 24-48 hr, dog 4): 21%
